Laboratory results taken from patent EP4603105A1, “PHARMACEUTICAL COMPOSITION CONTAINING CYCLIC COMPOUND HAVING SELECTIVE KRAS INHIBITORY EFFECT AGAINST HRAS AND NRAS” (CHUGAI SEIYAKU KABUSHIKI KAISHA, priority 2022, dated 2024).

Experiments:
[1] = biological target: GDP-bound NRAS wild-type protein (Homo sapiens, UniProt P01111); assay: Binding to NRAS by surface plasmon resonance (SPR), KD and KD ratio to KRAS; conditions: ratio of KD for GDP-bound NRAS wild-type protein to KD for KRAS
In short: (§1)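 Compound binding is evaluated by SPR single-cycle kinetics, with concentrations added intermittently from low to high for 75 s each. Target surfaces carry GDP-loaded biotinylated Avi-RAS at about 100–300 RU, regenerated after each cycle; temperature 30°C. A 1:1 binding model gives KD.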

[2] = biological target: GDP-bound KRAS wild-type protein (Homo sapiens, UniProt P01116); assay: Binding to KRAS by surface plasmon resonance (SPR), dissociation constant KD; conditions: Single Cycle Kinetics
Chain of GDP-bound KRAS wild-type protein (P01116 1-188 isoform P01116-2): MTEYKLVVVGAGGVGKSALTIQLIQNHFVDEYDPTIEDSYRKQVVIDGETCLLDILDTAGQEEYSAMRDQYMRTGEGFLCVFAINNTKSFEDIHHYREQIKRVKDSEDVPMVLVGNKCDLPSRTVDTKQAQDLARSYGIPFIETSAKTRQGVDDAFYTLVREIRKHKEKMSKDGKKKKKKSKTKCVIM
In short: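 Biotinylated GDP-bound RAS was captured at about 100–300 RU. Running buffer: HBS pH 7.4, 10 mM MgCl2, 10 µM GDP, 1 mM DTT, 0.01% Tween 20, 4% DMSO.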

[3] = tested on: human lung cancer strain NCI-H441; assay: NCI-H441 cell proliferation inhibitory activity (CellTiter-Glo, 4 days); format: cell-based; conditions: NCI-H441 cells, 4 days, read-out: NCl-H441 IC50
In short: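 Proliferation was scored by […] measured after the reagent was added to cultures kept at 37°C in 5% carbon dioxide.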

HRAS wild-type protein = HRAS wild-type protein (Homo sapiens, UniProt P01112); assay: Binding to HRAS by surface plasmon resonance (SPR), KD and KD ratio to KRAS; conditions: ratio of KD for HRAS wild-type protein to KD for KRAS
Chain of HRAS wild-type protein (P01112 whole entry): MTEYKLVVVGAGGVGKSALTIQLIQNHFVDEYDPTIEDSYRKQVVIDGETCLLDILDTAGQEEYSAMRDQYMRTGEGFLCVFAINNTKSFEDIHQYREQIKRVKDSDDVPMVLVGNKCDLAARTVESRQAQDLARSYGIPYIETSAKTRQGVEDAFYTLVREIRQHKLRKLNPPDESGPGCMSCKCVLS
In short: as §1

Chain of GDP-bound NRAS wild-type protein (P01111 whole entry): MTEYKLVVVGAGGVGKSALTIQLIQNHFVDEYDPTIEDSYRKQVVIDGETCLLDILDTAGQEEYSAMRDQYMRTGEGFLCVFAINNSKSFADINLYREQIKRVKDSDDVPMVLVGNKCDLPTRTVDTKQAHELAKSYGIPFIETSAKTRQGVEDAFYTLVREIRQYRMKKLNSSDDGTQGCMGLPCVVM

## CCCOC[C@@H]1NC(=O)C[C@@H](C(=O)N(C)CCC)N(C)C(=O)[C@H](C2CCCC2)N(C)C(=O)C2(CC(C)(C)C2)NC(=O)[C@@H]2C[C@@H](OCC)CN2C(=O)[C@H](CCc2cc(F)c(C(F)(F)F)c(F)c2)NC(=O)CN(C)C(=O)[C@H](Cc2ccc(C(F)(F)F)cc2)N2CC/C=C\C[C@@H](C2=O)N(C)C(=O)CN(C)C(=O)[C@H]([C@@H](C)CC)NC1=O [PP3451]
[1]
  NRAS /KRAS: A (a compound having 10 or more and less than 20 is denoted as A)
[2]
  Kd: 0.35 nM
[3]
  IC50: 26.2 nM
HRAS wild-type protein
  HRAS /KRAS: A (a compound having 10 or more and less than 20 is denoted as A)

## CCO[C@@H]1C[C@H]2C(=O)NC3(CC(C)(C)C3)C(=O)N(C)[C@@H](C3CCCC3)C(=O)N(C)[C@H](C(=O)N(C)C)CC(=O)N[C@@H](CC(C)C)C(=O)N[C@@H]([C@@H](C)CC)C(=O)N(C)CC(=O)N(C)[C@H]3C/C=C\CCN(C3=O)[C@@H](Cc3ccc(C(F)(F)F)cc3)C(=O)N(C)CC(=O)N[C@@H](CCc3ccc(C(F)(F)F)c(Cl)c3)C(=O)N2C1 [PP3452]
[1]
  NRAS /KRAS: A (a compound having 10 or more and less than 20 is denoted as A)
[2]
  Kd: 0.19 nM
[3]
  IC50: 14.5 nM
HRAS wild-type protein
  HRAS /KRAS: A (a compound having 10 or more and less than 20 is denoted as A)

## CCCC[C@@H]1NC(=O)C[C@@H](C(=O)N(C)C)N(C)C(=O)[C@H](C2CCCC2)N(C)C(=O)C2(CC(C)(C)C2)NC(=O)[C@@H]2C[C@@H](OCC)CN2C(=O)[C@H](CCc2ccc(C(F)(F)F)c(Cl)c2)NC(=O)CN(C)C(=O)[C@H](Cc2ccc(C(F)(F)F)cc2)N2CC/C=C\C[C@@H](C2=O)N(C)C(=O)CN(C)C(=O)[C@H]([C@@H](C)CC)NC1=O [PP3453]
[1]
  NRAS /KRAS: A (a compound having 10 or more and less than 20 is denoted as A)
[2]
  Kd: 0.34 nM
[3]
  IC50: 19.4 nM
HRAS wild-type protein
  HRAS /KRAS: A (a compound having 10 or more and less than 20 is denoted as A)

## CCC[C@@H]1NC(=O)C[C@@H](C(=O)N(C)C)N(C)C(=O)[C@H](C2CCCC2)N(C)C(=O)C2(CC(C)(C)C2)NC(=O)[C@@H]2C[C@@H](OCC)CN2C(=O)[C@H](CCc2ccc(C(F)(F)F)c(Cl)c2)NC(=O)CN(C)C(=O)[C@H](Cc2ccc(C(F)(F)F)cc2)N2CC/C=C\C[C@@H](C2=O)N(C)C(=O)CN(C)C(=O)[C@H]([C@@H](C)CC)NC1=O [PP3454]
[1]
  NRAS /KRAS: A (a compound having 10 or more and less than 20 is denoted as A)
[2]
  Kd: 0.3 nM
[3]
  IC50: 26.2 nM
HRAS wild-type protein
  HRAS /KRAS: A (a compound having 10 or more and less than 20 is denoted as A)

## CCO[C@@H]1C[C@H]2C(=O)NC3(CC(C)(C)C3)C(=O)N(C)[C@@H](C3CCCC3)C(=O)N(C)[C@H](C(=O)N(C)C)CC(=O)N[C@@H](CC(C)C)C(=O)N[C@@H]([C@@H](C)CC)C(=O)N(C)CC(=O)N(C)[C@H]3C/C=C\CCN(C3=O)[C@@H](Cc3ccc(C(F)(F)F)cc3)C(=O)N(C)CC(=O)N[C@@H](CCc3cc(F)c(C(F)(F)F)c(F)c3)C(=O)N2C1 [PP3455]
[1]
  NRAS /KRAS: A (a compound having 10 or more and less than 20 is denoted as A)
[2]
  Kd: 0.11 nM
[3]
  IC50: 15 nM
HRAS wild-type protein
  HRAS /KRAS: A (a compound having 10 or more and less than 20 is denoted as A)

## CCCC[C@@H]1NC(=O)C[C@@H](C(=O)N(C)C)N(C)C(=O)[C@H](C2CCCC2)N(C)C(=O)C2(CC(C)(C)C2)NC(=O)[C@@H]2C[C@@H](OCC)CN2C(=O)[C@H](CCc2cc(F)c(C(F)(F)F)c(F)c2)NC(=O)CN(C)C(=O)[C@H](Cc2ccc(C(F)(F)F)cc2)N2CC/C=C\C[C@@H](C2=O)N(C)C(=O)CN(C)C(=O)[C@H]([C@@H](C)CC)NC1=O [PP3456]
[1]
  NRAS /KRAS: A (a compound having 10 or more and less than 20 is denoted as A)
[2]
  Kd: 0.2 nM
[3]
  IC50: 16.4 nM
HRAS wild-type protein
  HRAS /KRAS: A (a compound having 10 or more and less than 20 is denoted as A)

## CCC[C@@H]1NC(=O)C[C@@H](C(=O)N(C)C)N(C)C(=O)[C@H](C2CCCC2)N(C)C(=O)C2(CC(C)(C)C2)NC(=O)[C@@H]2C[C@@H](OCC)CN2C(=O)[C@H](CCc2cc(F)c(C(F)(F)F)c(F)c2)NC(=O)CN(C)C(=O)[C@H](Cc2ccc(C(F)(F)F)cc2)N2CC/C=C\C[C@@H](C2=O)N(C)C(=O)CN(C)C(=O)[C@H]([C@@H](C)CC)NC1=O [PP3457]
[1]
  NRAS /KRAS: AA (a compound having 20 or more is denoted as AA)
[2]
  Kd: 0.16 nM
[3]
  IC50: 13.2 nM
HRAS wild-type protein
  HRAS /KRAS: A (a compound having 10 or more and less than 20 is denoted as A)

## CCCO[C@@H]1C[C@H]2C(=O)NC3(CC(C)(C)C3)C(=O)N(C)[C@@H](C3CCCC3)C(=O)N(C)[C@H](C(=O)N(C)CC)CC(=O)N(C)[C@@H](COCC)C(=O)N[C@@H]([C@@H](C)CC)C(=O)N(C3CC3)CC(=O)N(C)[C@H]3C/C=C\CCN(C3=O)[C@@H](Cc3ccc(C)cc3)C(=O)N(C)CC(=O)N[C@@H](CCc3cc(F)c(C(F)(F)F)c(F)c3)C(=O)N2C1 [PP3458]
[1]
  NRAS /KRAS: A (a compound having 10 or more and less than 20 is denoted as A)
[2]
  Kd: 0.82 nM
[3]
  IC50: 28.8 nM
HRAS wild-type protein
  HRAS /KRAS: A (a compound having 10 or more and less than 20 is denoted as A)

## CCCO[C@@H]1C[C@H]2C(=O)NC3(CC(C)(C)C3)C(=O)N(C)[C@@H](C3CCCC3)C(=O)N(C)[C@H](C(=O)N(C)CC)CC(=O)N(C)[C@@H](COCC)C(=O)N[C@@H]([C@@H](C)CC)C(=O)N3CCC[C@H]3C(=O)N(C)[C@H]3C/C=C\CCN(C3=O)[C@@H](Cc3ccc(C)cc3)C(=O)N(C)CC(=O)N[C@@H](CCc3cc(F)c(C(F)(F)F)c(F)c3)C(=O)N2C1 [PP3459]
[1]
  NRAS /KRAS: A (a compound having 10 or more and less than 20 is denoted as A)
[2]
  Kd: 0.97 nM
[3]
  IC50: 40.2 nM
HRAS wild-type protein
  HRAS /KRAS: A (a compound having 10 or more and less than 20 is denoted as A)

## CCCO[C@@H]1C[C@H]2C(=O)NC3(CC(C)(C)C3)C(=O)N(C)[C@@H](C3CCCC3)C(=O)N(C)[C@H](C(=O)N(C)CC)CC(=O)N(C)[C@@H](COCC)C(=O)N[C@@H]([C@@H](C)CC)C(=O)N3C[C@@H](C)C[C@H]3C(=O)N(C)[C@H]3C/C=C\CCN(C3=O)[C@@H](Cc3ccc(C)cc3)C(=O)N(C)CC(=O)N[C@@H](CCc3cc(F)c(C(F)(F)F)c(F)c3)C(=O)N2C1 [PP3460]
[1]
  NRAS /KRAS: A (a compound having 10 or more and less than 20 is denoted as A)
[2]
  Kd: 3.1 nM
[3]
  IC50: 115 nM
HRAS wild-type protein
  HRAS /KRAS: A (a compound having 10 or more and less than 20 is denoted as A)

## CCCO[C@@H]1C[C@H]2C(=O)NC3(CC(C)(C)C3)C(=O)N(C)[C@@H](C3CCCC3)C(=O)N(C)[C@H](C(=O)N(C)CC)CC(=O)N(C)[C@@H](COCC)C(=O)N[C@@H]([C@@H](C)CC)C(=O)N3C[C@@H](F)C[C@H]3C(=O)N(C)[C@H]3C/C=C\CCN(C3=O)[C@@H](Cc3ccc(C)cc3)C(=O)N(C)CC(=O)N[C@@H](CCc3cc(F)c(C(F)(F)F)c(F)c3)C(=O)N2C1 [PP3461]
[1]
  NRAS /KRAS: A (a compound having 10 or more and less than 20 is denoted as A)
[2]
  Kd: 0.35 nM
[3]
  IC50: 19.1 nM
HRAS wild-type protein
  HRAS /KRAS: A (a compound having 10 or more and less than 20 is denoted as A)

## CCCO[C@@H]1C[C@H]2C(=O)NC3(CC(C)(C)C3)C(=O)N(C)[C@@H](C3CCCC3)C(=O)N(C)[C@H](C(=O)N(C)CC)CC(=O)N(C)[C@@H](COCC)C(=O)N[C@@H]([C@@H](C)CC)C(=O)N(C3CC3)CC(=O)N(C)[C@H]3C/C=C\CCN(C3=O)[C@@H](Cc3ccc(C)cc3)C(=O)N(C)CC(=O)N[C@@H](CCc3ccc(C(F)(F)F)c(Cl)c3)C(=O)N2C1 [PP3462]
[1]
  NRAS /KRAS: AA (a compound having 20 or more is denoted as AA)
[2]
  Kd: 0.68 nM
[3]
  IC50: 39.7 nM
HRAS wild-type protein
  HRAS /KRAS: A (a compound having 10 or more and less than 20 is denoted as A)

## CCCO[C@@H]1C[C@H]2C(=O)NC3(CC(C)(C)C3)C(=O)N(C)[C@@H](C3CCCC3)C(=O)N(C)[C@H](C(=O)N(C)CC)CC(=O)N(C)[C@@H](COCC)C(=O)N[C@@H]([C@@H](C)CC)C(=O)N3CCC[C@H]3C(=O)N(C)[C@H]3C/C=C\CCN(C3=O)[C@@H](Cc3ccc(C)cc3)C(=O)N(C)CC(=O)N[C@@H](CCc3ccc(C(F)(F)F)c(Cl)c3)C(=O)N2C1 [PP3463]
[1]
  NRAS /KRAS: A (a compound having 10 or more and less than 20 is denoted as A)
[2]
  Kd: 0.97 nM
[3]
  IC50: 50.4 nM
HRAS wild-type protein
  HRAS /KRAS: A (a compound having 10 or more and less than 20 is denoted as A)

## CCCO[C@@H]1C[C@H]2C(=O)NC3(CC(C)(C)C3)C(=O)N(C)[C@@H](C3CCCC3)C(=O)N(C)[C@H](C(=O)N(C)CC)CC(=O)N(C)[C@@H](COCC)C(=O)N[C@@H]([C@@H](C)CC)C(=O)N3C[C@@H](C)C[C@H]3C(=O)N(C)[C@H]3C/C=C\CCN(C3=O)[C@@H](Cc3ccc(C)cc3)C(=O)N(C)CC(=O)N[C@@H](CCc3ccc(C(F)(F)F)c(Cl)c3)C(=O)N2C1 [PP3464]
[1]
  NRAS /KRAS: A (a compound having 10 or more and less than 20 is denoted as A)
[2]
  Kd: 4 nM
[3]
  IC50: 162 nM
HRAS wild-type protein
  HRAS /KRAS: A (a compound having 10 or more and less than 20 is denoted as A)

## CCCO[C@@H]1C[C@H]2C(=O)NC3(CC(C)(C)C3)C(=O)N(C)[C@@H](C3CCCC3)C(=O)N(C)[C@H](C(=O)N(C)CC)CC(=O)N(C)[C@@H](COCC)C(=O)N[C@@H]([C@@H](C)CC)C(=O)N3C[C@@H](F)C[C@H]3C(=O)N(C)[C@H]3C/C=C\CCN(C3=O)[C@@H](Cc3ccc(C)cc3)C(=O)N(C)CC(=O)N[C@@H](CCc3ccc(C(F)(F)F)c(Cl)c3)C(=O)N2C1 [PP3465]
[1]
  NRAS /KRAS: A (a compound having 10 or more and less than 20 is denoted as A)
[2]
  Kd: 0.6 nM
[3]
  IC50: 23.3 nM
HRAS wild-type protein
  HRAS /KRAS: A (a compound having 10 or more and less than 20 is denoted as A)
